Experiments:
SH-SY5Y cells [1] = experiment: Western blot of SH-SY5Y cells (3-Ntyr, mTOR pathway proteins, synaptophysin); assay type: cell-based, human; conditions: 100 μM 7-NI, 24 hr
Experimental: (§1) Human neuroblastoma (“NB”) SH-SY5Y cells were obtained from the American Type Culture Collection (ATCC) and maintained in Dulbecco's modified Eagle's medium (DMEM) and Ham's F-12 (1:1) supplemented with 10% fetal bovine serum, 2 mM L-glutamine, and 100 U/ml penicillin-G/[…] streptomycin in the humidified atmosphere (37° C., 5% CO2). Cells were plated onto 25 cm^2 and 75 cm^2 at a density of […] respectively for Western blotting (WB) and 1×10^5 for immunofluorescence. The SH-SY5Y cells were treated with 100 μM 7-nitroindazole (7-NI) for 24 hr. This concentration was confirmed in the dose-response experiment (FIG. 1) using an MTT viability assay.
(§2) Cells were lysed in ice-cold RIPA buffer containing 50 mM Tris-HCl, 1% Nonidet P-40, 0.25% sodium deoxycholate, 150 mM NaCl, protease-, and phosphatase inhibitor cocktails, pH 7.4. After sonication, the lysates were centrifuged at 17,000 g for 30 min at 4° C., and the supernatant was collected. The protein concentrations were determined with the BCA protein assay. Proteins were resolved by SDS-PAGE, transferred to a PVDF membrane, and probed with the following antibodies: anti-pMTOR (rabbit, diluted 1:1000), anti-mTOR (rabbit, diluted 1:1000), anti-TSC2 (rabbit, diluted 1:1000), anti-nNOS (rabbit, diluted 1:1000), anti-pAKT (rabbit, diluted 1:1000), anti-AKT (rabbit, diluted 1: 1000), anti-pRPS6 (rabbit, diluted 1:1000), anti-RPS6 (mouse, diluted 1:1000), anti-synaptophysin (mouse, diluted 1:1000), anti-β-actin (rabbit, diluted 1:1000), anti-3-Nitrotyrosine (rabbit, diluted 1:5000) from Abcam. All primary antibodies, except anti-3-Nitrotyrosine, were purchased from Cell Signaling Technology. The blots were then visualized using an enhanced chemiluminescence (ECL) system.
SH-SY5Y cells were plated in 6 well plates, as well as on 22 mm^2 coverslips at a density of 6.0×10^4 cells/cm^2 and transfected with 20 nM nNOS siRNA (SEQ ID NO: 4) for 24 h, with the use of Lipofectamine RNAi MAX (56530, Invitrogen) according to the manufacturer's protocol. Then cells were washed with phosphate-buffered saline (PBS) and harvested for WB and fixed for immunofluorescence.

SH-SY5Y cells [2] = experiment: NADPH-diaphorase activity in cell lysates of SH-SY5Y cells; assay type: cell-based, human; conditions: 100 μM 7-NI or 20 nM siRNA (SEQ ID NO: 4), absorbance at 585 nm normalized for total protein, n=3
Experimental: In FIGS. 2A-2C, for quantitative analysis absorbance at 585 nm was normalized for total protein. Data are expressed as the mean±SEM. Statistical significance was determined using a One-way ANOVA followed by Fisher's LSD multiple comparison post hoc test. *P<0.05 and **P<0.01.
FIG. 2A: Quantitative analysis of NADPH-diaphorase activity in cell lysates of SH-SY5Y cells following the administration of the control (“SH-SY5Y”) (n=3), 0.1% DMSO (“SH-SY5Y+NC”) (n=3), 100 μM 7-NI (“SH-SY5Y+7-NI”) (n=3), or 20 nM siRNA (SEQ ID NO: 4) (“SH-SY5Y+si-nNOS”) (n=3).
FIG. 2C: Representative images of cultured SH-SY5Y cells stained for NADPH-diaphorase activity.

SH-SY5Y cells [3] = experiment: NADPH-diaphorase staining of SH-SY5Y cells; assay type: cell-based, human; conditions: 7-NI treated vs untreated group
Experimental: as §1
NADPH diaphorase staining were done using NBT as a chromogen and […] as a reductant to detect cells with NOS activity. Cells were cultured and treated as described previously in the immunofluorescence section. Then cells were fixed with 4% PFA for 30 min at room temperature in dark. After fixation, the cells were washed 2 times with PBS and then incubated in 0.2% Triton X-100 (in phosphate buffer) for 10 min. The cells were then incubated in […] NBT-NADPH solution for 2 h at 37C. The cells were washed twice with PBS and permanently mounted with DPX. Images were analyzed with a Nikon confocal TL microscope. […]

U87-MG cells [4] = experiment: Western blot of U87-MG cells (3-Ntyr, CD70, iNOS, nNOS); assay type: cell-based, human; conditions: vs control and vehicle
Experimental: Human glioblastoma U87-MG cells were obtained from the American Type Culture Collection (ATCC) and maintained in Dulbecco's modified Eagle's Medium (DMEM) and Ham's F-12 (1:1) supplemented with 10% fetal bovine serum, 2 mM L-glutamine, and 100 U/ml penicillin-G/[…] streptomycin in the humidified atmosphere (37° C., 5% CO2). Cells were plated onto 25 cm^2 and 75 cm^2 at a density of […] respectively for Western blotting (WB) and 1×10^5 for immunofluorescence. The U87-MG cells were treated with 100 μM 7-nitroindazole (7-NI) for 24 hr. This concentration was confirmed in the dose-response experiment (FIG. 7) using an MTT viability assay.
as §2, with “anti-CD70” for “anti-pMTOR”, “and” for “anti-mTOR (rabbit, diluted 1:1000), anti-TSC2 (rabbit, diluted 1:1000), anti-nNOS (rabbit, diluted 1:1000), anti-pAKT (rabbit, diluted 1:1000), anti-AKT (rabbit, diluted 1: 1000), anti-pRPS6 (rabbit, diluted 1:1000), anti-RPS6 (mouse, diluted 1:1000), anti-synaptophysin (mouse, diluted 1:1000), anti-β-actin (rabbit, diluted 1:1000),”

SH-SY5Y-xenografted mice = experiment: Tumor volume in SH-SY5Y-xenografted mice; assay type: in vivo; conditions: 80 mg/kg 7-NI, after 1 month, vs control
Experimental: Data are presented as mean±SEM. Statistical significance was determined using a One-way ANOVA followed by Fisher's LSD multiple comparison post hoc test. **P<0.01.

U87-MG cells [5] = experiment: Griess assay, nitrite and nitrate content; assay type: cell-based, human; conditions: L-NIL alone, compared to the control (summary statement)
Experimental: In a particular example, in vitro and in vivo experiments were performed using U87-MG cells and U87-MG-xenografted mice, respectively, as a glioblastoma model.

[6] = 7-NI, not statistically significantly

Row | SMILES | 3-Ntyr levels (SH-SY5Y cells [1]) | levels of TSC-2 (SH-SY5Y cells [1]) | levels of synaptophysin (SH-SY5Y cells [1]) | phosphorylation of RPS6 (SH-SY5Y cells [1]) | phosphorylation of mTOR (SH-SY5Y cells [1]) | phosphorylation of protein kinase-B (AKT) (SH-SY5Y cells [1]) | NADPH-diaphorase activity (SH-SY5Y cells [2]) | NADPH diaphorase staining (SH-SY5Y cells [3]) | 3-Ntyr levels (U87-MG cells [4]; 100 μM 7-NI, 24 hr) | expression level of iNOS (U87-MG cells [4]; 7-NI) | expression level of CD70 (U87-MG cells [4]; [6]) | expression level of nNOS (U87-MG cells [4]; [6]) | tumor volume (SH-SY5Y-xenografted mice) | total nitrate and nitrite content (U87-MG cells [5])
1 | O=[N+]([O-])c1cccc2cn[nH]c12 [7-NI, 7-nitroindazole] | halved | significant increase | significantly decreased | reduced | decrease | reduced | significant decrease | decreased | significantly reduced | unchanged | slightly decreased | slightly decreased | significantly smaller | 
2 | CC(=N)NCCCC[C@H](N)C(=O)O [L-NIL, N^6-(1-iminoethyl)-L-lysine] |  |  |  |  |  |  |  |  |  |  |  |  |  | significantly reduced
